Test results: patent US9920045B2, “Solid state forms of a PDE10 inhibitor” (Omeros Corporation, priority 2015, dated 2018)

Legend:
[1] = Dynamic vapor sorption (gravimetric moisture sorption analysis); format: physicochemical; settings: for hygroscopicity by moisture sorption analysis / moisture absorbed at 60% RH / moisture absorbed at 90% RH: 25° C.; for XRPD of the post moisture sorption sample: dried at 0% RH and 60° C. for 2 hours after sorption; for moisture absorbed at 60% RH / moisture absorbed at 90% RH: moisture sorption
Procedure: Gravimetric moisture sorption experiments were carried out on all materials by first holding the sample at 40% RH and 25° C. until an equilibrium weight was reached or for a maximum of four hours. The sample was then subjected to an isothermal (25° C.) adsorption scan from 40 to 90% RH in steps of 10%. The sample was allowed to equilibrate to an asymptotic weight at each point for a maximum of four hours. Following adsorption, a desorption scan from 85 to 5% RH (at 25° C.) was run in steps of −10%, again allowing a maximum of four hours for equilibration to an asymptotic weight. An adsorption scan was then performed from 0% RH to 40% RH in steps of +10% RH. The sample was then dried for no less than two hours at 60° C. and the resulting solid analyzed by XRPD.
Compound (I), Form F, was further characterized by thermal analysis (DSC and TGA), Karl Fischer titration, and DVS. […] (FIG. 5). […] (FIG. 6). The weight loss observed on TGA corresponds to the melt on DSC. […] The material absorbed 2.0 wt % moisture at 60% RH and 2.4 wt % moisture at 90% RH (FIG. 7). […] Karl Fisher analysis of the sample indicates a moisture content of 0.6 wt %, which was performed when lab humidity was around 20% RH.
Compound (I), Shifted Form F, was further characterized by thermal analysis (DSC and TGA), Karl Fischer titration, and DVS. […] (FIG. 9). […] (FIG. 10). […] The material absorbs 2.4 wt % moisture at 60% RH and 2.9 wt % moisture at 90% RH (FIG. 11). […] The water content by KF is higher than the weight loss detected by TGA. It is possible that some moisture was slowly carried away by nitrogen stream and not reflected in the weight loss attributed to the thermal event. Characterization of shifted Form F was performed when lab humidity was between 50-60% RH.

[2] = Drying study / ambient exposure, form followed by XRPD; format: physicochemical
Procedure: To understand a change of Form F to shifted Form F, a drying study was conducted wherein a variable hydrate having shifted Form F was dried overnight under vacuum at 50° C. […] This study confirms that Form F absorbs moisture from the atmosphere and depending upon the relative humidity of the environment either remains Form F or converts to Shifted Form F.
XRPD patterns were collected with a PANalytical CubiX-Pro XRD diffractometer using an incident beam of Cu radiation produced using an Optix long, fine-focus source. An elliptically graded multilayer mirror was used to focus CuKα X-rays (1.54 Å) through the specimen and onto the detector. Prior to the analysis, a silicon specimen (NIST SRM 640d) was analyzed to verify the observed position of the Si 111 peak is consistent with the NIST-certified position. A specimen of the sample was sandwiched between 3-μm-thick films and analyzed in transmission geometry. A beam-stop, short antiscatter extension, and antiscatter knife edge were used to minimize the background generated by air. Soller slits for the incident and diffracted beams were used to minimize broadening from axial divergence. Diffraction patterns were collected using a scanning position-sensitive detector (X'Celerator) located 240 mm from the specimen and Data Collector software v. 2.2b. The tube power was set to 45 kV and 40 mA. […]

hygroscopicity by moisture sorption analysis [1]	XRPD of the post moisture sorption sample [1]	moisture absorbed at 60% RH [1] [wt %]	moisture absorbed at 90% RH [1] [wt %]	XRPD of the dried solid ([2]; dried overnight under vacuum at 50° C.)	form after exposure to ambient conditions ([2]; dried material exposed to ambient conditions for 5 days)	SMILES
moderately hygroscopic	consistent with shifted Form F	2.4	2.9	consistent with Form F		CCOC(C(=O)c1ccc(-c2cc(OC)c(Cl)c(OC)c2)o1)c1ccc(-c2nnc(C)s2)cc1 (stereo not shown) [shifted Form F, 1-(5-(4-chloro-3,5-dimethoxyphenyl)furan-2-yl)-2-ethoxy-2-(4-(5-methyl-1,3,4-thiadiazol-2-yl)phenyl)ethanone]
moderately hygroscopic	consistent with Form F	2.0	2.4		converted back to shifted Form F	CCOC(C(=O)c1ccc(-c2cc(OC)c(Cl)c(OC)c2)o1)c1ccc(-c2nnc(C)s2)cc1 (stereo not shown) [Form F, 1-(5-(4-chloro-3,5-dimethoxyphenyl)furan-2-yl)-2-ethoxy-2-(4-(5-methyl-1,3,4-thiadiazol-2-yl)phenyl)ethanone]
